Laboratory results from ChEMBL document CHEMBL1201862, “PubChem BioAssay data set” (2004).
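Five compound concentrations were applied to cells in 96-well plates for 48 hours; endpoints were derived by simple linear interpolation of the resulting dose-response curve. GI50: concentration for 50% inhibition of growth.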 Calls of active or inactive are those of the source. Rule as the data show it: active = GI50 up to about 1.1 µM and inactive = higher.

Experiments:
Assay in all cases: NCI anticancer screen, dose series, 48 h
[1] = test system: CCRF-CEM
[2] = test system: MDA-MB-435
[3] = test system: HL-60
[4] = test system: RXF 393
[5] = test system: SNB-75
[6] = test system: MDA-N
[7] = test system: NCI-H522
[8] = test system: TK-10
[9] = test system: DU-145
[10] = test system: NCI/ADR-RES
[11] = test system: SK-OV-3
[12] = test system: U-251
[13] = test system: CAKI-1
[14] = test system: KM12
[15] = test system: SNB-19
[16] = test system: UO-31
[17] = test system: MOLT-4
[18] = test system: EKVX
[19] = test system: SR
[20] = test system: A498

Measured: GI50

O=C(O)C(Cc1ccccc1)NCc1c(O)ccc2c(-c3ccccc3)cc(=O)oc12 (centres undefined)
inactive: [1] > 100 µM | [2] > 100 µM | [3] > 100 µM | [4] > 100 µM | [5] > 100 µM | [6] > 100 µM | [7] > 100 µM | [8] > 100 µM | [9] > 100 µM | [10] > 100 µM | [11] > 100 µM | [12] > 100 µM | [13] > 100 µM | [14] > 100 µM | [15] > 100 µM | [16] > 100 µM | [17] > 100 µM | [18] > 100 µM | [19] > 100 µM

Cn1c(C(O)C2(c3cccnc3)SCCCS2)cc2ccccc21 (centres undefined)
inactive: [1] 84.7 µM | [2] 90.2 µM | [3] 50.5 µM | [5] 73.3 µM | [6] > 100 µM | [8] > 100 µM | [9] > 100 µM | [10] > 100 µM | [11] > 100 µM | [12] > 100 µM | [20] > 100 µM | [13] > 100 µM | [14] 71.4 µM | [15] > 100 µM | [16] 37.2 µM | [18] 72.3 µM | [19] 55.5 µM

CC(/C=C/c1ccccc1)=N\NC(N)=S
inactive: [1] 49.7 µM | [2] 28.1 µM | [3] 15.1 µM | [6] 29.6 µM | [8] 39.4 µM | [9] 34.4 µM | [10] 27.9 µM | [11] 45.4 µM | [12] 40.5 µM | [20] 22.2 µM | [13] 35.7 µM | [14] 28.3 µM | [15] 24 µM | [16] 32.1 µM | [17] 24.4 µM | [18] 17.7 µM | [19] 23.2 µM

CC1=C(C(=O)OCCO[N+](=O)[O-])C(c2cccc([N+](=O)[O-])c2)C(C(=O)OC(C)C)=C(C)N1 (centres undefined)
inactive: [1] 29.9 µM | [2] 15.2 µM | [3] > 100 µM | [4] 13.8 µM | [6] 14.9 µM | [7] 17.8 µM | [8] 14.9 µM | [9] 25.3 µM | [10] 10.5 µM | [11] 16.7 µM | [12] 14.9 µM | [20] 19.4 µM | [13] 17.6 µM | [14] 11 µM | [15] 19.2 µM | [16] 12.6 µM | [17] 3.23 µM | [18] 16.8 µM | [19] 24.8 µM

CC1(C)COCN1COC1CCCCC1
inactive: [1] 4.91 µM | [2] > 100 µM | [4] > 100 µM | [5] 5.08 µM | [6] > 100 µM | [7] > 100 µM | [8] > 100 µM | [9] > 100 µM | [10] > 100 µM | [11] > 100 µM | [12] > 100 µM | [20] > 100 µM | [13] > 100 µM | [14] > 100 µM | [15] > 100 µM | [16] > 100 µM | [17] 24.1 µM | [18] > 100 µM | [19] 20.1 µM

COc1ccc(CNC2=N/C(=C\c3ccccc3Cl)C(=O)N2C)cc1
inactive: [2] 19 µM | [3] 25.8 µM | [4] 31.8 µM | [5] 11.8 µM | [6] 18.8 µM | [7] 20.5 µM | [8] 37.7 µM | [9] 27.7 µM | [10] 28 µM | [11] 51.2 µM | [12] 17.9 µM | [20] 25.7 µM | [13] 30.7 µM | [14] 20.4 µM | [15] 38.6 µM | [17] 27.1 µM | [18] 28.3 µM | [19] 25.2 µM

Cc1ccnc2c1C(=O)C1=C(OC(C)(C)CC1O)C2=O (centres undefined)
inactive: [1] 2.97 µM | [2] 1.32 µM | [3] 2.41 µM | [4] 10.7 µM | [6] 1.45 µM | [7] 2.9 µM | [8] 12 µM | [9] 6.4 µM | [10] 2.78 µM | [11] 13.7 µM | [12] 3.34 µM | [20] 15.3 µM | [13] 6.01 µM | [14] 3.27 µM | [15] 7.38 µM | [16] 2.2 µM | [17] 3.9 µM | [18] 5.21 µM | [19] 2.03 µM

C=C1CCCCCCCCCCC1[S+]([O-])c1ccccc1 (centres undefined)
inactive: [2] 23.9 µM | [3] 19.1 µM | [4] 26.5 µM | [6] 34 µM | [9] 49.1 µM | [10] 34.4 µM | [11] 38 µM | [12] 21 µM | [20] 38.6 µM | [13] > 100 µM | [15] 56.6 µM | [16] 18.2 µM | [17] 21.8 µM | [18] > 100 µM | [19] 25.2 µM

COC(=O)c1cc2c(cc1Cl)Sc1nnc(Nc3ccc(C)cc3)n1S2(=O)=O
inactive: [1] 3.78 µM | [2] 7.19 µM | [3] 3.46 µM | [4] 3.94 µM | [6] 6.44 µM | [7] 2.67 µM | [8] 14.3 µM | [9] 2.65 µM | [10] 11.1 µM | [11] 11.9 µM | [12] 3.87 µM | [20] 15.2 µM | [13] 10.4 µM | [14] 5.57 µM | [15] 5.81 µM | [16] 10.5 µM | [17] 2.94 µM | [18] 12.9 µM | [19] 2.12 µM

O=C(NCCO)c1c(O)c2ccccc2[nH]c1=O
inactive: [1] > 100 µM | [2] > 100 µM | [3] > 100 µM | [4] > 100 µM | [5] > 100 µM | [6] > 100 µM | [7] > 100 µM | [8] > 100 µM | [9] > 100 µM | [10] > 100 µM | [12] > 100 µM | [20] > 100 µM | [13] > 100 µM | [14] > 100 µM | [15] > 100 µM | [16] 83.6 µM | [17] > 100 µM | [18] 69.5 µM | [19] > 100 µM

CC(=O)O[C@H]1[C@H](OC(C)=O)[C@@H](CN=[N+]=[N-])OCO[C@@H]1CN=[N+]=[N-]
inactive: [1] > 100 µM | [2] > 100 µM | [3] > 100 µM | [4] > 100 µM | [5] > 100 µM | [6] > 100 µM | [7] > 100 µM | [8] > 100 µM | [9] > 100 µM | [10] > 100 µM | [11] > 100 µM | [12] > 100 µM | [20] > 100 µM | [14] > 100 µM | [15] > 100 µM | [17] > 100 µM | [18] > 100 µM | [19] > 100 µM

COc1c(O)cc(/C=C/c2cc(O)cc3c2[C@@]2(C(=O)O3)c3c(O)cc(O)cc3OC2c2cccc(O)c2)cc1O (some centres undefined)
inactive: [1] 30.5 µM | [2] 54.3 µM | [3] 28 µM | [4] 52.2 µM | [6] 39.5 µM | [7] 34.8 µM | [8] 95.9 µM | [9] 72.1 µM | [10] 26.4 µM | [11] 28.2 µM | [12] 41.4 µM | [20] 94.6 µM | [13] 98.4 µM | [14] 39.1 µM | [15] 39.3 µM | [16] 26.1 µM | [17] 1.3 µM | [19] 1.57 µM

O=C(NC(Cl)(C(F)(F)F)C(F)(F)F)c1ccc(F)cc1
active: [5] 0.789 µM
inactive: [1] > 100 µM | [2] > 100 µM | [3] > 100 µM | [4] > 100 µM | [6] > 100 µM | [8] > 100 µM | [9] > 100 µM | [10] > 100 µM | [11] > 100 µM | [12] > 100 µM | [20] > 100 µM | [13] > 100 µM | [14] > 100 µM | [15] > 100 µM | [16] > 100 µM | [17] > 100 µM | [18] > 100 µM | [19] > 100 µM

Cc1ccc(NCc2nnc3c(-c4ccccc4)nc4ccccc4n23)cc1
inactive: [1] 15.1 µM | [2] 29.6 µM | [3] 14.4 µM | [4] 34.8 µM | [6] 26.2 µM | [7] 16 µM | [8] 43.9 µM | [9] 25.2 µM | [10] 50.9 µM | [11] 40.6 µM | [12] 16.7 µM | [20] 32.6 µM | [13] 30.1 µM | [14] 22.8 µM | [15] 38 µM | [17] 16 µM | [18] 18.7 µM | [19] 13 µM

COc1ccc(NCc2cc(OC)c(OC)c(OC)c2)cc1
inactive: [18] 4.74 µM
active: [2] 0.0711 µM | [3] 0.205 µM | [4] 0.372 µM | [6] 0.0867 µM | [7] 0.307 µM | [9] 0.857 µM | [10] 0.366 µM | [11] 0.463 µM | [12] 0.431 µM | [20] 0.521 µM | [14] 0.201 µM | [15] 0.698 µM | [17] 0.493 µM | [19] 0.228 µM
